Measured values: patent US9770509B2, “Self micro-emulsifying drug delivery system with increased bioavailability” (Pharmaceutics International, Inc., priority 2010, dated 2017)

Experiment: Temperature cycling / physical stability of solvents, systems and formulations
Assay type: physicochemical
Procedure: Temperature Cycling of Selected Solvents and Solubility Systems was studied. Systems were prepared at ambient temperature, with mixed solvent in the weight ratios reported in brackets. Mitotane, 0.25 grams, was then added to 1 gram of each solvent or solvent mixture. Samples were placed in the refrigerator (5° C.±3° C.) and observations were recorded. The samples were then left at ambient temperature for 24 hours, and observations recorded. The samples were then placed in a 40° C. oven, and final observation was made after another 24 hours. These observations are recorded in the table below.
Based on these studies, several formulations were prepared (see Tables 10 and 11). Temperature cycling was tested to evaluate the physical stability of the three formulations F-2772-054 (33.3% drug w/w), F-2772-055 (20.0% drug w/w), and F-2772-057 (33.3% drug w/w) as well as formulations F-2772-054 and 057 at 28.5% drug w/w. […] Temperature cycling consisted of three stages for 24 hour periods; refrigeration (5° C.), 40° C. conventional oven, and room temperature. After each 24 hour cycle, solutions were evaluated for clarity.

Highest mitotane concentration trial found to be the most stable: 28.5 % weight/weight
Highest most stable mitotane concentration expressed as drug loading (28.5/(100-28.5)): 40 % drug loading
Compound: Clc1ccc(C(c2ccccc2Cl)C(Cl)Cl)cc1 (centres unmarked) [mitotane, Mitotane]
